What was measured:
[1] = target: T1, PI3Kα (Homo sapiens, UniProt P42336); test: ADP-Glo in vitro lipid kinase assay, PI3Kα; format: biochemical; parameters: Full-length p110α was expressed in a complex with full-length p85α (for biochemistry and HDX-MS); 6xHis followed by TEV protease site (N); made in house; host or cells: Spodoptera frugiperda Sf9 (baculovirus co-infection; plasmids OP831 and OP809); conditions: for Max. activity relative to pY ctrl: relative to pY control; for EC50: in vitro PI3Kα activation
T1 sequence (P42336 whole entry, the tested form may be a part): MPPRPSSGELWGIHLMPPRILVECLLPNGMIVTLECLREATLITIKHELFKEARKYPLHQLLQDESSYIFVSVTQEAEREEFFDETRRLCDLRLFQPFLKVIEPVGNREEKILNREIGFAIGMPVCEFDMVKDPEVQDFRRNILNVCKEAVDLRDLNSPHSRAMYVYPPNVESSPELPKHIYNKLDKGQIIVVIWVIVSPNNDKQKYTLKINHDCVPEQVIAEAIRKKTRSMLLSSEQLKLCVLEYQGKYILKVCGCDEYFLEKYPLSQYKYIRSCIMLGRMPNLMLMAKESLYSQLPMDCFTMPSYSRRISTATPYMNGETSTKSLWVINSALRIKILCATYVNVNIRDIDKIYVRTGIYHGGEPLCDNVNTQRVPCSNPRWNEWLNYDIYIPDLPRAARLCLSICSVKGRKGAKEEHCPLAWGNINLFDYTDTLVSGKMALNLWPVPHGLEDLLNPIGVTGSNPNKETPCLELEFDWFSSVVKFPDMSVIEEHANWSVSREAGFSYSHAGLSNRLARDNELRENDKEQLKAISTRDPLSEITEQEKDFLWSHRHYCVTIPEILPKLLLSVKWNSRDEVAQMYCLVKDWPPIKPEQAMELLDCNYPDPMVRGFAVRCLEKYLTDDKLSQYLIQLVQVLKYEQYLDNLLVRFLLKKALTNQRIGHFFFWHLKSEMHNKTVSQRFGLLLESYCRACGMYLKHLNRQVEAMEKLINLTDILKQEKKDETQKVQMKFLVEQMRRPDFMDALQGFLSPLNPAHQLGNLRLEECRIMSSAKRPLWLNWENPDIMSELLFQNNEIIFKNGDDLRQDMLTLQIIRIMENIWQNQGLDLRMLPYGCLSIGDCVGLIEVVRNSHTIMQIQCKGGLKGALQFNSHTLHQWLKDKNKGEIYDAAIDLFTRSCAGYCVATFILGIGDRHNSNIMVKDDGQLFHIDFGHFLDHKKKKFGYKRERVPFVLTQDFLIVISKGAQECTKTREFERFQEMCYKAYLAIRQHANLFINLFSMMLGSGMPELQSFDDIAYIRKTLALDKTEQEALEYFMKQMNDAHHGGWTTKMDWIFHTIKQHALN
T1 sequence (P27986 whole entry partner, the tested form may be a part): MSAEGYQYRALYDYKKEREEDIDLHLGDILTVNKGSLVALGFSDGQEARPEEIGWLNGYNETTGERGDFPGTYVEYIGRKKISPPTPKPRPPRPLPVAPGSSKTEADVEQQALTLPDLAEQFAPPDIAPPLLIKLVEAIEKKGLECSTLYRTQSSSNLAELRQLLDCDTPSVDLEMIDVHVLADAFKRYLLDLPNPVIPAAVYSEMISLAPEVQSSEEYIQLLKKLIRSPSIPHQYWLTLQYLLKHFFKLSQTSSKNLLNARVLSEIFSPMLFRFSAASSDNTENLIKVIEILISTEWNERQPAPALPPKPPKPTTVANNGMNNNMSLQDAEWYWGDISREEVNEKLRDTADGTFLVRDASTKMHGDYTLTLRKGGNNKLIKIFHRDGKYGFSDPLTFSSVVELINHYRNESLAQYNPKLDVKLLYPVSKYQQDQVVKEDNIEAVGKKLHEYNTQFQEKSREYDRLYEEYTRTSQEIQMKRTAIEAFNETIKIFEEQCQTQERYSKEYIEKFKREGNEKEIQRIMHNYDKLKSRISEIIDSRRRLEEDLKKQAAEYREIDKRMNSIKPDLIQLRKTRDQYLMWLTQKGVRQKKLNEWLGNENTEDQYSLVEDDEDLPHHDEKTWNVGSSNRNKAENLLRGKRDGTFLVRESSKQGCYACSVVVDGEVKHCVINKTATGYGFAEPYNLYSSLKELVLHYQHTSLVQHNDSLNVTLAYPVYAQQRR
Experimental: The effect of 1938 on the in vitro lipid kinase activity of p85α in complex with p110α, p110β or p110δ (further referred to as PI3Kα, PI3Kβ and PI3Kδ) was tested. As a positive control, a bis-phosphorylated phosphopeptide (a PDGF-receptor-derived peptide phosphorylated on Tyr-740 and Tyr-751, hereafter referred to as pY peptide) was used to mimic engagement of the p85α SH2 domains with tyrosine-phosphorylated peptides in membrane-bound receptors and adaptor proteins, known to activate the PI3Kα complex.
Kinase reactions were performed with ADP-Glo kinase assay kit (Promega Corporation). The enzyme, substrate and compounds were diluted in reaction buffer (20 mM HEPES, 50 mM NaCl, 50 mM KCl, 3 mM MgCl2, 1 mM EGTA, 1 mM TCEP, pH 7.4). Final concentrations of PI3Kα and PI3Kδ used were 25 nM and 50 nM for PI3Kβ. Liposomes (5% brain PI(4,5)P2, 20% brain phosphatidylserine, 45% brain phosphatidylethanolamine, 15% brain phosphatidylcholine, 10% cholesterol, 5% sphingomyelin (Avanti Polar Lipids)) were used at a final concentration of 1 mg/ml.
For compound profiling, the reaction mixture contained 2 μl PI3K enzyme, 2 μl compound and/or pY and 2 μl of liposome substrate mixed with ATP. ATP was used at a final concentration of 500 μM for PI3Kα and PI3Kβ and at 200 μM for PI3Kδ, unless otherwise stated. The final DMSO concentration in the assay was 1%. The experiments were performed at room temperature for 3 h using 384 white-polystyrene plates (Corning #3824) before addition of 6 μl of ADP-Glo R1 to terminate the reaction. The plate was incubated for 45 min, followed by addition of 12 μl of ADP-Glo R2 and incubated further for 60 min in the dark. Luminescence was read using a Sense (Hidex) plate reader. […] All analyses were performed using GraphPad Prism 7.
For characterisation of the effects of 1938 on in vitro PI3K enzymology, all reactions were performed at room temperature with 384 white-polystyrene plates (Corning #3574). The final DMSO concentration in the assay was between 0.5%-1.8%. The reaction mixture contained 2 μl PI3K enzyme, 2 μl compound and/or pY and 2 μl of liposome substrate mixed with ATP. ATP was used at a final concentration of 200 μM, unless otherwise stated. The enzyme and compounds were pre-incubated for 10 min prior to addition of substrate. The reaction was allowed to proceed for 45 min at room temperature, before addition of 6 μl of ADP-Glo R1 to terminate the reaction. The plate was incubated for 60 min, followed by addition of 12 μl of ADP-Glo R2 and incubated further for 60 min in the dark. For enzyme kinetic calculations, data was expressed as velocity (pmol of ADP generated/sec). ADP-ATP standard curves were performed according to the manufacturer's instructions, and all analyses were performed using GraphPad Prism 8.

[2] = Solubility (comparison in words); format: physicochemical
[3] = target: T1, PI3Kα; test: pAKT S473 ELISA in A549 cells (PI3Kα activation); format: cell-based; parameters: endogenous in cells; host or cells: A549; conditions: for Emax at 10 µM: A549, 0.25 h, read-out: <50% response at 10 μM; for EC50: A549 cells, 15 min treatment, pAKT S473 ELISA, normalised to Emax of 1 μM insulin, read-out: Av EC50
Experimental: EC50 values were determined by quantifying phosphorylation on S473 residues of Akt in A549 human adenocarcinoma cells by ELISA (enzyme linked immunoadsorbent assay, R&D Systems, DYC887BE). A549 cells were seeded into 96-well plates (50,000 cells/well) in DMEM supplemented with 10% foetal bovine serum and 1% penicillin-streptomyocin. Following 24 h in culture cells were starved for 24 h in serum-free DMEM before 15 minute treatment with a concentration response curve of compounds. Experimental compounds were diluted in DMSO into […] 1:3 concentration response curves in polypropylene V-bottom plates (SLS MIC9050). Concentration response curves were diluted to a 3× stock in serum-free DMEM. Standard 8-point concentration response curves were performed at 50, 16.7, 5.6, 1.9, 0.6, 0.2, 0.07, 0.02 μM and serum-free DMEM containing 0.5% DMSO was used as a negative control. […] A549 cells were seeded at 50,000 cells per well in 96-well plates in DMEM (10% FBS+1% P/S). The next day cells were washed once with PBS before addition of serum-free DMEM for 24 h. On the day of treatment cells, were incubated in fresh serum-free DMEM prior to treatment. Compounds solubilised to 10 mM in DMSO were diluted 1:3 in an 8-point concentration response curve in DMSO. Concentration response curves were diluted in serum-free DMEM by transfer into intermediate plates using a BRAVO liquid handler (Agilent). Intermediate plates were then used to treat cell plates using the BRAVO liquid handler. Compound concentration response curves had atop concentration of 50 μM and a final well concentration of 0.5% DMSO. Cell plates were treated for 15 min at 37° C., 5% CO2 before being washed with ice-cold PBS and lysed in lysis buffer 6 (R&D Systems #895561) and freezing at −80° C. Levels of pAKT-S473 were determined using the phospho-AKT (S473) pan-specific Duoset IC ELISA (R&D Systems #DYC887BE) in 96-well white high-binding plates (Corning #3922) according to manufacturer's instructions. Endpoint luminescence was measured using a Sense (Hidex) platereader. […] Data were transformed and EC50 data were determined by variable slope (4 parameters) non-linear regression using Prism 7 (Graphpad).

CCN1CCN(c2ccc(Nc3cc(Nc4ccncn4)ccn3)cc2)CC1 [Example 2106]
Max. activity relative to 1938 [1]: 4% | Max. activity relative to pY ctrl [1]: 14 ± 13%

CC(=O)N1CCc2cccc(Nc3ccnc(Nc4ccccc4)c3)c21 [Example 2016]
solubility compared with 1938 (in words) [2]: less soluble than 1938 | Max. activity relative to 1938 [1]: 9% | Max. activity relative to pY ctrl [1]: 36 ± 8% | reduction in activity ([1]; structure-activity comparison with 1938): more than 90%

COc1cc(Nc2cc(Nc3cccc4c3N(C(C)=O)CC4)ccn2)cc(OC)c1OC [Example 1887]
activity compared with 1938 (in words) [1]: activities comparable with 1938 | EC50 [1]: 36 ± 5 µM | Max. activity relative to 1938 [1]: 80% | Max. activity relative to pY ctrl [1]: 318 ± 68%

COc1cc(N2CCN(C)CC2)ccc1Nc1cc(Nc2cccc3c2N(C(C)=O)CC3)ccn1 [Example 1889]
activity compared with 1938 (in words) [1]: activities comparable with 1938 | EC50 [1]: 56 ± 24 µM | Max. activity relative to 1938 [1]: 102% | Max. activity relative to pY ctrl [1]: 408 ± 110%

CC(=O)N1CCc2cccc(Nc3ccnc(Nc4nn(C)c5ccccc45)c3)c21 [48 (2027)]
Emax at 10 µM [3]: < 50% | EC50 [3]: 1.48 µM

COc1cc(N2CCN(C(C)C)CC2)ccc1Nc1cc(Nc2cccc3c2N(C(C)=O)CC3)ccn1 [14 (1942)]
EC50 [3]: 2.27 µM

CC(=O)N1CCc2cccc(Nc3ccnc(Nc4ccc5ncccc5c4)c3)c21 [49 (2028)]
Emax at 10 µM [3]: < 50% | EC50 [3]: 0.44 µM

CC(=O)N1CCc2cccc(Nc3ccnc(Nc4ccc(C(N)=O)cc4)c3)c21 [35 (2011)]
EC50 [3]: 4.97 µM

CC(=O)N1CCc2cccc(Nc3ccnc(Nc4cccc5ccncc45)c3)c21 [71 (2071)]
Emax at 10 µM [3]: < 50% | EC50 [3]: 6.54 µM

COCCOc1cc(N2CCN(C)CC2)ccc1Nc1cc(Nc2cccc3c2N(C(C)=O)CC3)ccn1 [33 (2009)]
EC50 [3]: 5.23 µM

CCN1CCN(c2ccc(Nc3nccc(Nc4cccc5c4N(C(C)=O)CC5)n3)cc2)CC1 [Example 2152]
Max. activity relative to 1938 [1]: 4% | Max. activity relative to pY ctrl [1]: 16 ± 8%

CC(=O)N1CCc2cccc(Nc3ccnc(Nc4cccc(N5CCN(C)CC5)c4)c3)c21 [22 (1968)]
EC50 [3]: 7.85 µM

COc1cc(N2CCN(C)CC2)ccc1Nc1cc(Nc2cccc(S(C)(=O)=O)c2)ccn1 [54 (2043)]
EC50 [3]: 1.22 µM

CC(=O)N1CCc2cccc(Nc3ccnc(Nc4ccc(C(C)(C)C)cc4)c3)c21 [40 (2017)]
Emax at 10 µM [3]: < 50% | EC50 [3]: 7.4 µM

CC(=O)N1CCc2cccc(Nc3ccnc(Nc4ccc(N5CCN(C)CC5)cc4C(F)(F)F)c3)c21 [25 (1992)]
EC50 [3]: > 50 µM
